# Assay results as given in patent US20250296961A1, “ANTIMICROBIAL PEPTIDES FOR REMINERALIZATION OF TEETH AND PREVENTION OF DENTAL CARIES” (The University of Hong Kong, priority 2021, published 2025).
# Where two headings read alike, the source gives them in different places. No end group written: not given here.
# How the values were obtained:
# in vitro = details: human, human saliva (centrifuged, filtered supernatant)
# Description: (§1) The collected saliva samples were centrifuged at 12,000 rpm for 20 min^21]. The supernatant was filtered to remove any debris. […] At 0, 0.5, 1, 2, 4, and 6 h, 40 uL solutions were taken from each sample and were analysed by High Performance Liquid Chromatography (HPLC-UV, 1525 Binary HPLC Pump, 2489 UV/Visible Detector, Waters, USA).
# [1] = Stability of 8DSS-C8-P-113 hydrogel on tooth surface in flow water (BCA); format: physicochemical; details: 16 μM mL^−1, flow water 30 mL h-1, 2 h
# Description: 20 μL of 16 μM mL^−1 solution of 8DSS-C8-P-113 was applied to the tooth surface (N=5), and self-formed a layer of hydrogel sticking to the bottom of a hand-made instrument (FIG. 2J). To simulate the average human salivary flow rate, a stable flow of deionized water at a rate of 30 mL h-1 was provided using a Syringe Pump (LSP02-1B Double Channel inject/extract, China). The drained liquid, approximately 15 mL, was collected every 30 min. A sample of 100 μL of 16 μM mL^−1 solution of 8DSS-C8-P-113 was added to 15 mL of deionized water to serve as the 0 min sample. After 2 h, the drained liquids collected at 30 min, 60 min, 90 min, and 120 min were tested for their concentrations using Pierce BCA Protein Assay Kit (Rockford, IL).
# S. mutans = system: S. mutans; set-up: species or system Sprague-Dawley rats; details: rat, in vivo
# Description: The rat caries model was conducted under the protocol approved by the Ethics Committee of Anhui Medical University, China (ref. no. LLSC20232002) in accordance with national and international guidelines to minimise animal suffering. Ten male specific pathogen-free Sprague-Dawley rats aged 6 weeks were selected. The rats were provided with appropriate antibiotics (ampicillin, chloramphenicol, and carbencillin 1.0 g/kg/day) in the drinking water for 3 days. […] The infection was confirmed by oral swabbing and culturing on mitis salivarius-bacitracin (MSB) agar plates. The infected animals were randomly assigned into two groups (N=10): 16 μM mL^−1 of 8DSS-C8-P-113 in 10 mM HEPES (pH=7, n=5) and 10 mM HEPES (n=5, control group). Animals in each group were treated with 150 μL of the respective treatment topically using dental bonding brush for 2 min once daily for 4 weeks. […] The severity of caries was evaluated by the Keyes' scoring system which categorizes caries as enamel only (E), dentin exposed ¼ to ¾ (Ds), or more than ¾ dentin affected (Dm). The rats' weights were recorded to monitor for signs of toxicity. Additionally, various tissues from gingiva, palate, heart, liver, spleen, lung, and kidney were collected, stained with hematoxylin and eosin (H&E), and histopathologically analysed.
# [2] = for Peptide concentration incubated in human saliva: 37° C.
# Description: as §1
# Description for MC3T3-E1 cells: Cells exposed to α-MEM without peptide was the control group. Cells viability after peptide exposure was evaluated by cell survival rate using Cell Counting Kit-8 assay (CCK-8 assay, Sigma-Aldrich, St. Louis, USA).
sequence,measurement,setting,value
DSSDSSDSSDSSDSSDSSDSSDSSTFFRLFNRAKRHHGYKRKFH [8DSS-C8-P-113],Cytocompatibility,MC3T3-E1 cells,++
same,"remaining at 6 h, 1 mg mL^−1",in vitro,89.4%
same,Hydrogel remaining on the tooth surface (of initial status),[1],over 80%
same,Hydrogel remaining on the tooth surface (of initial status),[1]; listed as 8DSS-C8-P-113 hydrogel,approximately 82.15%
same,Histopathology analysis (H&E),S. mutans,"No signs of inflammatory reaction, proliferative changes, or necrosis"
same,Peptide concentration incubated in human saliva,[2]; 0 h,1 mg/mL
same,Peptide concentration incubated in human saliva,[2]; 0.5 h,0.9942 mg/mL
same,Peptide concentration incubated in human saliva,[2]; 1 h,0.987 mg/mL
same,Peptide concentration incubated in human saliva,[2]; 2 h,0.9885 mg/mL
same,Peptide concentration incubated in human saliva,[2]; 4 h,0.8991 mg/mL
same,Peptide concentration incubated in human saliva,[2]; 6 h,0.894 mg/mL
same,Stability,[2]; summary grade,+++
